pEC50, pKi: −log10 of the molar value.
Experiments:
[1] = molecular target: T1, cloned mouse κ receptor (Mus musculus, UniProt P33534); test: biochemical; format: binding
T1 construct: expressed in transfected cells

[2] = molecular target: T2, cloned mouse δ receptor (Mus musculus, UniProt P32300); test: biochemical; format: binding
T2 construct: expressed in transfected cells

[3] = molecular target: T3, cloned rat μ receptor (Rattus norvegicus, UniProt P33535); test: biochemical; format: binding
T3 construct: expressed in transfected cells; host or cells: COS-7 (transient)

[4] = molecular target: T4, wild-type mouse delta opioid receptor (Mus musculus, UniProt P32300); test: biochemical; format: binding
T4 construct: expressed in transfected cells; host or cells: COS-7 (transient, pCMV6c)

[5] = molecular target: T5, D128N mutant mouse delta opioid receptor (Mus musculus, UniProt P32300, D128N); test: biochemical; format: binding
T5 construct: expressed in transfected cells; host or cells: COS-7 (transient, pCMV6c)

[6] = molecular target: T6, H278N mutant mouse delta opioid receptor (Mus musculus, UniProt P32300, H278N); test: biochemical; format: binding
T6 construct: expressed in transfected cells; host or cells: COS-7 (transient, pCMV6c)

[7] = molecular target: T4, wild-type mouse delta opioid receptor; test: Forskolin-stimulated cAMP accumulation, COS-7 cells, wild-type delta receptor; format: cell-based
Procedure: (§1) Briefly, COS-7 cells were subcultured in 12-well culture plates. The cells were transfected 48 hrs. prior to the cAMP experiments. Culture medium was removed from the wells and replaced with 500 μl of fresh medium containing 0.5 mM isobutylmethylxanthine (IBMX). Cells were incubated for 20 min at 37° C. Medium was removed and replaced with fresh medium containing 0.5 mM IBMX, with or without 10 μM forskolin and various opioid agonists. The cells were incubated for 30 min at 37° C. Medium was removed and cells sonicated in the wells in 500 μl of 1NCl. The HCl was evaporated off in a Speed-Vac and the cAMP analyzed using a radioimmunoassay kit from NEN/Dupont (Wilmington, Del.).

[8] = molecular target: T5, D128N mutant mouse delta opioid receptor; test: Forskolin-stimulated cAMP accumulation, COS-7 cells, D128N mutant; format: cell-based
Procedure: as §1

[9] = molecular target: T6, H278N mutant mouse delta opioid receptor; test: Forskolin-stimulated cAMP accumulation, COS-7 cells, H278N mutant; format: cell-based
Procedure: as §1

[10] = molecular target: T7, MOP2 (Mus musculus, UniProt P35377); format: cell-based
T7 construct: expressed in transfected cells; host or cells: COS-7 (transient)

[11] = molecular target: T8, mouse delta opioid receptor aspartate 95 to asparagine mutant (Mus musculus, UniProt P32300, D95N); test: Binding to delta receptor mutant with aspartate 95 converted to asparagine, COS-7 cells
T8 construct: expressed in transfected cells; host or cells: COS-7
T8 sequence (P32300 whole entry D95N): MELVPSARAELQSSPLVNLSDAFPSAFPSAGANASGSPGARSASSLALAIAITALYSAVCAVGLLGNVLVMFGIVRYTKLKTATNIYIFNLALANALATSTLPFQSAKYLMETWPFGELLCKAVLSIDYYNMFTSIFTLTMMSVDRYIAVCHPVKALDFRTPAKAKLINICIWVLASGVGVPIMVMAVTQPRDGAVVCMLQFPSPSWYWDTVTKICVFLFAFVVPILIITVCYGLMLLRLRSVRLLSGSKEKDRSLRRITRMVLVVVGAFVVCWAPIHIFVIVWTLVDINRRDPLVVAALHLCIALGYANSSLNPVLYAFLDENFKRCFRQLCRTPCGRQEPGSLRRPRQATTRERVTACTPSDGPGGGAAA

T5 sequence (P32300 whole entry D128N): as the sequence (P32300 whole entry D95N) above, with N95D, D128N counted along it
T6 sequence (P32300 whole entry H278N): as the sequence (P32300 whole entry D95N) above, with N95D, H278N counted along it
T4 sequence (P32300 whole entry): as the sequence (P32300 whole entry D95N) above, with N95D counted along it
T2 sequence (P32300 whole entry): as the sequence (P32300 whole entry D95N) above, with N95D counted along it
T1 sequence (P33534 whole entry): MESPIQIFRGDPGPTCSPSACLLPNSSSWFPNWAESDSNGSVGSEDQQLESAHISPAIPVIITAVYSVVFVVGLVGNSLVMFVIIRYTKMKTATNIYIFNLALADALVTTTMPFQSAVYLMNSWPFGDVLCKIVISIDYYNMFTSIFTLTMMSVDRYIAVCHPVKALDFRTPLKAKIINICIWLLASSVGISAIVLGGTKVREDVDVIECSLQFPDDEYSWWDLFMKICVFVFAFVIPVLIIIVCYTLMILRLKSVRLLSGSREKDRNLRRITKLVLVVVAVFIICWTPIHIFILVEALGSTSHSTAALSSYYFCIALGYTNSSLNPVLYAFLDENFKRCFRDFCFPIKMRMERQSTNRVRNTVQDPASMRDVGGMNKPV
T3 sequence (P33535 whole entry): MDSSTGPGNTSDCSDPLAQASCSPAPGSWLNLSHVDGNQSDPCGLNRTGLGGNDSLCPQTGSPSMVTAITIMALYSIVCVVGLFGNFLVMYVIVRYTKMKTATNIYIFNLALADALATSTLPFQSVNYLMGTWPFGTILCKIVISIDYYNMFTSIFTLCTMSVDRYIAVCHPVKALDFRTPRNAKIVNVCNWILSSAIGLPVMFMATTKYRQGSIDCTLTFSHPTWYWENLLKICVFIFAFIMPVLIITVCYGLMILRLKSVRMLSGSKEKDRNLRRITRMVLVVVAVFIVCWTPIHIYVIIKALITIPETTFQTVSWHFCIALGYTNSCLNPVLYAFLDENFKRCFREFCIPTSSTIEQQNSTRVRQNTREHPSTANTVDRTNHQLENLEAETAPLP
T7 sequence (P35377 whole entry): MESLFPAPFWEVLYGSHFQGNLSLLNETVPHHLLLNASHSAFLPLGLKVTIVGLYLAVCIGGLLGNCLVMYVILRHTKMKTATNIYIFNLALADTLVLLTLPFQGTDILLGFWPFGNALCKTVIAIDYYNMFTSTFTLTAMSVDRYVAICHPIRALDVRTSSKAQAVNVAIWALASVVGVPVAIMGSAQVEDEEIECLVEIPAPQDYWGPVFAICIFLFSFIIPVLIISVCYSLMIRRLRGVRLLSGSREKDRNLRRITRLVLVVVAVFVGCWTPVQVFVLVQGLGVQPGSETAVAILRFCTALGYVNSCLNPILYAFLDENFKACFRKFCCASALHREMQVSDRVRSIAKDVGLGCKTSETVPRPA

## CCC12CCN(CC3(O)CC3)C(Cc3ccc(O)cc31)C2(C)C (racemic) [Bremazocine]
[1]
  pKi: 10.05
[2]
  pKi: 8.64
[3]
  pKi: 9.12
[4]
  pKi: 7.24
[5]
  pKi: 5.57
[6]
  pKi: 8.77
[7]
  pEC50: 8.13
[8]
  pEC50: 7.10
[9]
  pEC50: 8.82
[10]
  Effect on forskolin-stimulated cAMP formation, MOP2: no effect
[11]
  Affinity of aspartate 95 mutant and wild-type delta receptors compared: similar

From patent US7235366B1 (priority 1993, dated 2007)
